Assay results as given in ChEMBL document CHEMBL1201862, “PubChem BioAssay data set” (2004).
Activity calls are given as the source filed them.

Legend:
[1] = target: Lytic switch protein BZLF1 (Epstein-Barr virus (strain B95-8) (HHV-4) (Human herpesvirus 4), UniProt P03206); assay: EBV ZTA inhibitors, dose response, counter-screen for EBNA-1 inhibitor project, biochemical, fluorescence polarization, Epstein-Barr virus, 1536-well (AID 2377); parameters: species or system human gammaherpesvirus 4;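 further: fluorescence polarization of Cy5-labelled ZRE DNA probe bound by purified Zta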
[2] = target: Epstein-Barr nuclear antigen 1 (Epstein-Barr virus (strain B95-8) (HHV-4) (Human herpesvirus 4), UniProt P03211); assay: EBNA-1 inhibitors, dose response, biochemical, fluorescence polarization, 1536-well (AID 2381); parameters: species or system human gammaherpesvirus 4;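 further: fluorescence polarization of a Cy5 DNA probe bound by EBNA-1 protein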
[3] = Luminescence Cell-Based Dose Confirmation HTS to Identify Inhibitors of Polyadenylation.; format: functional
[4] = inhibitors of intracellular T. cruzi replication, confirmation, NIH3T3 host cells, beta-gal luminescence (AID 2044); format: functional, cell-based;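 further: intracellular parasites grown in NIH/3T3 mouse fibroblasts as host cells; luminescent beta-galactosidase reporter signal from transgenic T. cruzi replicating inside host cells; inhibitors lower the luminescence signal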
[5] = inhibitors of clade B AD8 Env fusion, dose response, cell-based, cherry-pick (AID 652062); format: functional;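 further: luciferase signal from cell-cell fusion driven by HIV-1 clade B AD8 Env; potency is for inhibitors of fusion seen as a drop in luminescence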
[6] = target: T1, COUP transcription factor 2 (Homo sapiens, UniProt P24468); assay: Luminescence-based cell-based high throughput dose response assay to identify inhibitors of COUP-TFII (NR2F2).; format: functional;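 further: HEK293 cells transiently cotransfected with COUP-TFII expression vector and reporter; luciferase reporter luminescence driven by COUP-TFII from the pX2-168 reporter plasmid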
T1 sequence (P24468 whole entry): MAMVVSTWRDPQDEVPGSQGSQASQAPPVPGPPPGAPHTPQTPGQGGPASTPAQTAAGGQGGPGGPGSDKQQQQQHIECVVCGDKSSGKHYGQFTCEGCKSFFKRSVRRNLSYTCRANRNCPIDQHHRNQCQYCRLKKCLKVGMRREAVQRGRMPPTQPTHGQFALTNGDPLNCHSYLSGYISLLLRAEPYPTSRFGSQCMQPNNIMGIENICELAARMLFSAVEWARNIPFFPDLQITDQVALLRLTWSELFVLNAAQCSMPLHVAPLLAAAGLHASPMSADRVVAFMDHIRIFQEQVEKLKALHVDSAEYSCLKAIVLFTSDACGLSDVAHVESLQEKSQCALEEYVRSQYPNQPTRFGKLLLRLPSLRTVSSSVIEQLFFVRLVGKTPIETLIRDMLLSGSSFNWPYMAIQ

[7] = cytotoxicity toward NIH3T3 fibroblasts, dose response, counter-screen, cell-based, ATP luminescence, mouse fibroblasts (AID 2010); format: functional;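 further: cells exposed to compound for about 90 hours before reading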
[8] = inhibitors of HIV Env-driven cell fusion, dose response, cherry-pick (AID 652057); format: functional, cell-based
INS1 = assay: beta cell apoptosis inhibitors, cytokine rescue, dose response, luminescence, retest (AID 449756); format: functional, cell-based; conditions: Rattus norvegicus;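 further: cell death triggered by IL-1 beta plus TNF-alpha plus IFN-gamma mixture; protective hits raise ATP signal compared with cytokine alone wells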
[9] = CEM21 lymphoblast cell cytotoxicity, dose response, cytotoxicity control for viral fusion inhibitor project, CellTiter-Glo luminescence, cherry-picked (AID 652042); format: functional, cell-based;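 further: potency for signal decrease meaning cytotoxicity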
[10] = ZM109 Env clade C HIV-1 fusion inhibitors, dose response, HeLa effector, CEM target cells, luciferase, cherry-pick (AID 652058); format: functional, cell-based
[11] = off-target signal loss in HeLa-CEM21 co-culture – HeLa F-luc CTL cells, cherry-picked, counter-screen for HIV-1 Env fusion inhibitor project, dose response (AID 652040); format: functional, cell-based;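 further: potency for signal decrease marking cytotoxic or nonspecific inhibition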
[12] = Luminescence-based dose response cell-based high throughput screening assay for cytotoxic compounds using the IEC-6 intestinal epithelial cell line. [Related pubchem assays: 1858 (Summary AID.), 1825 (Counterscreen.), 1907 (Confirmation screen.)]; format: functional
cells [13] = format: functional, cell-based
BJ [14] = assay: cytotoxicity toward BJ-TERT fibroblasts, dose response, cell-based, RAS-independent, luminescence (AID 1933); format: functional; conditions: Homo sapiens
[15] = target: T2, Kappa-type opioid receptor (Homo sapiens, UniProt P41145); format: functional
Beta-galactosidase [16] = target: T3, Beta-galactosidase (Escherichia coli, UniProt Q8VNN2); format: functional
Beta-galactosidase [17] = target: T3, Beta-galactosidase; assay: PubChem AID 485352; format: functional
BJ [18] = assay: cytotoxicity toward Ras-transformed BJeLR fibroblasts, dose response, cell-based, alamar blue fluorescence, cherrypicked samples (AID 2631); format: functional; conditions: Homo sapiens;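 further: confirmatory dose-response assay in RAS-dependent BJ fibroblasts engineered with TERT, LT and ST, with cytotoxicity read by fluorescence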
BJ [19] = assay: cells; format: functional, cell-based; conditions: Homo sapiens
BJ [20] = assay: cytotoxicity toward BJ-TERT-LT-ST fibroblasts, dose response, cell-based, RAS-independent, luminescence (AID 1935); format: functional; conditions: Homo sapiens;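 further: BJ fibroblasts immortalized with TERT plus LT and ST oncogenes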
Streptococcus = assay: Group A Streptococcus viability loss, dose response, counter-screen for streptokinase expression inhibitor project, luminescence, BacTiterGlo (AID 1915); format: functional, organism-based;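 further: potency for reduction of bacterial viability or growth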
[21] = test system: Streptococcus sp. 'group A'; assay: growth inhibition of control SK(-) GAS strain, dose response, counter-screen for streptokinase expression inhibitor project, luminescence, kanamycin, BacTiterGlo, confirmation (AID 1900); format: functional, organism-based
Streptokinase A = target: T4, Streptokinase A (Streptococcus pyogenes serotype M1, UniProt P10520); assay: S. pyogenes streptokinase expression inhibitors, potency, dose response, plasminogen activation absorbance, OD405 (AID 1914); format: functional, Streptococcus pyogenes M1 GAS;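 further: secreted streptokinase activity via plasminogen activation per viability signal from cell pellet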
T4 sequence (P10520 whole entry): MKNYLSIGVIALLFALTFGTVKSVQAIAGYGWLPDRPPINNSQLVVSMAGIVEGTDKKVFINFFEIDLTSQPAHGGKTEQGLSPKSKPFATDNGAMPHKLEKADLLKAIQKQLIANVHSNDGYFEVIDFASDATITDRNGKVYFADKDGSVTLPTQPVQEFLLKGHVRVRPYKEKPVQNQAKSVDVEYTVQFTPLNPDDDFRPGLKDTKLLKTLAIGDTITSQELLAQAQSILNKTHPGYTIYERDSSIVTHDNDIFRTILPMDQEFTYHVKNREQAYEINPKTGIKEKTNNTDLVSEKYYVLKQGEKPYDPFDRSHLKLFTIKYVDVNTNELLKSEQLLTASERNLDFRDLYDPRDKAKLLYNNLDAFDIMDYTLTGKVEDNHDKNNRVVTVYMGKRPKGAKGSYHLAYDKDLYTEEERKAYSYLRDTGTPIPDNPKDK

[22] = target: T5, Type-1 angiotensin II receptor (Homo sapiens, UniProt P30556); assay: AT1 receptor antagonists, dose response, selectivity assay for APJ receptor antagonist project, cell-based, uHTS hits (AID 463214); format: functional;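 further: antagonist potency against angiotensin II stimulated AT1 response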
T5 sequence (P30556 whole entry): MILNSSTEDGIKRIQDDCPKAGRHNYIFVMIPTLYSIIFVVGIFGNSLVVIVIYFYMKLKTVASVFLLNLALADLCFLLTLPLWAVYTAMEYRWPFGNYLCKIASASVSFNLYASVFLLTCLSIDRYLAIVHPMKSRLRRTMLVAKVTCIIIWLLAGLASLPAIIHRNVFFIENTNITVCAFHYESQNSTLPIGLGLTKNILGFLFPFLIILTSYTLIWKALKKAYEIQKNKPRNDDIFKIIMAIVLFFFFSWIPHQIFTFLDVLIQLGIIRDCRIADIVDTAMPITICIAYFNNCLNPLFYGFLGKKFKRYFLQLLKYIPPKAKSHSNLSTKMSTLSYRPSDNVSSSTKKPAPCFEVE

[23] = cytotoxicity in HEK-293T cells, dose response, cytotoxicity control for TCR NF-kB inhibitor project, luminescence, T-cell screen hits (AID 489026); format: functional, cell-based;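 further: cells exposed to compound about 14 hours before the viability readout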
cells [24] = format: functional, cell-based; remark: listed apart in the source
Vero = assay: cells; format: functional; conditions: Chlorocebus sabaeus
cells [25] = format: functional
[26] = HepG2 cell cytotoxicity, dose response, cytotoxicity control for non-replicating M. tuberculosis project (AID 489018); format: functional; conditions: Mycobacterium tuberculosis
[27] = AlphaScreen signal interference compounds, dose response, artefact control for ARNT-TACC3 interaction inhibitor project, biochemical, luminescence, cherry-pick (AID 651705); format: functional;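 further: AlphaScreen bead proximity signal that flags compounds interfering with the detection technology; potency reflects signal decrease which marks the compound as an assay artifact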
[28] = THP-1 cell cytotoxicity, dose response, cytotoxicity control for non-replicating M. tuberculosis project (AID 489025); format: functional
[29] = target: T6, Heat shock factor protein 1 (Mus musculus, UniProt P38532); assay: HSF1 potentiators in luciferase reporter cells, confirmation, cell-based, NIH3T3, luminescence, dose retest (AID 435004); format: functional;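 further: stress induced by proteasome inhibitor MG132 added 30 min after compound; luciferase reporter driven by HSF1 response element in NIH3T3 cells; actives raise luminescence as potentiators of the MG132 stress response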
T6 sequence (P38532 whole entry): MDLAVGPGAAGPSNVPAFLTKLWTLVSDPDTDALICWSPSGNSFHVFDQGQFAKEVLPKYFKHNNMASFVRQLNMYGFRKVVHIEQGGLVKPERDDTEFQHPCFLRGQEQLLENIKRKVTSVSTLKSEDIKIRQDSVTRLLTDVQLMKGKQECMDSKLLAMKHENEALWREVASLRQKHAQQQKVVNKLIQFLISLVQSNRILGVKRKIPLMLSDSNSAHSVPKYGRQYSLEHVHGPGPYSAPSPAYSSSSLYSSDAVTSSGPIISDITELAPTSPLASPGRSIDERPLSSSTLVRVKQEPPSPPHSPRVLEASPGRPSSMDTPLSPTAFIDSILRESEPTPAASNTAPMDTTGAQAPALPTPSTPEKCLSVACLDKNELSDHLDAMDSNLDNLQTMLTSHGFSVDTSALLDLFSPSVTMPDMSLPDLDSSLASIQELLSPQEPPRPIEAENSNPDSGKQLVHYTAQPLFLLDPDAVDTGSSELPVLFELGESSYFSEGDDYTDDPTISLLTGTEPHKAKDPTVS

[30] = cytotoxicity toward DRD oncogenic fibroblasts, dose response, cell-based, non-viral oncogenic, luminescence (AID 1934); format: functional; conditions: Homo sapiens
[31] = target: T2, Kappa-type opioid receptor; format: functional; remark: listed apart in the source
[32] = Vero E6 cell cytotoxicity, dose response, cytotoxicity control for non-replicating M. tuberculosis project, secondary assay (AID 492998); format: functional, VeroE6; conditions: Vero C1008

Sequence of Epstein-Barr nuclear antigen 1 (P03211 whole entry): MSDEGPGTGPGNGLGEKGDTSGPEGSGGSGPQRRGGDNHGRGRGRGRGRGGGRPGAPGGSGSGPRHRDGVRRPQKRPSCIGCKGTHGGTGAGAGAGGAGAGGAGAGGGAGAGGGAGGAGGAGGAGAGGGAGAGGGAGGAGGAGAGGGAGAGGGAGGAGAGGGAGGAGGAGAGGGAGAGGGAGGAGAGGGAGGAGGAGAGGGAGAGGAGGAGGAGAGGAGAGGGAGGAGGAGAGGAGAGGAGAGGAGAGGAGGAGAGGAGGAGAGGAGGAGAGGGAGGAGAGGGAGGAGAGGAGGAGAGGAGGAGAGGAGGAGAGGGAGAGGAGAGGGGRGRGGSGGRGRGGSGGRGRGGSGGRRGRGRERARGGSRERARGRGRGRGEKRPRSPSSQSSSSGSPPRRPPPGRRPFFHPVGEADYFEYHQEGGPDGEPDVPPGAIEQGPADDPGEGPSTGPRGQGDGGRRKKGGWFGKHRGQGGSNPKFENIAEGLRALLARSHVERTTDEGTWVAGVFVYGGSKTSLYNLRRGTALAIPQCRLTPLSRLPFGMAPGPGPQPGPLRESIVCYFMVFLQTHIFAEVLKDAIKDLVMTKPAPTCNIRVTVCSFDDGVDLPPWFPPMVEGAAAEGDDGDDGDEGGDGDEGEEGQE
Sequence of Lytic switch protein BZLF1 (P03206 whole entry): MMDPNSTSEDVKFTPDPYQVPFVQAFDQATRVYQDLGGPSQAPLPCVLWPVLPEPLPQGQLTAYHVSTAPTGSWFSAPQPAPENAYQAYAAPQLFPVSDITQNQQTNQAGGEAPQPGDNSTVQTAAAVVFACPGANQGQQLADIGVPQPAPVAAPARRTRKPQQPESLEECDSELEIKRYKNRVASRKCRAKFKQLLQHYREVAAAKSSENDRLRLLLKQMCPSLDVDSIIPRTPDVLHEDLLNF
T2 sequence (P41145 whole entry): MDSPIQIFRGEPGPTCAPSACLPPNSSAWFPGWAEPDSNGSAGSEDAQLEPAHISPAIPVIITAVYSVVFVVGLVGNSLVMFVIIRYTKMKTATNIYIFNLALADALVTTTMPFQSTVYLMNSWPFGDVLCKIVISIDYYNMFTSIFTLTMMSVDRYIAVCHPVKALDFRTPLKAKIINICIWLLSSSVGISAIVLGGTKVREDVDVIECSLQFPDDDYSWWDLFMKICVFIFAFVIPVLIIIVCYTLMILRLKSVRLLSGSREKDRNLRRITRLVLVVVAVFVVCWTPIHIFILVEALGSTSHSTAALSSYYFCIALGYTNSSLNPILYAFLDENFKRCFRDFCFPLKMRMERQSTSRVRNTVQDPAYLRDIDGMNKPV
T3 sequence (Q8VNN2 whole entry): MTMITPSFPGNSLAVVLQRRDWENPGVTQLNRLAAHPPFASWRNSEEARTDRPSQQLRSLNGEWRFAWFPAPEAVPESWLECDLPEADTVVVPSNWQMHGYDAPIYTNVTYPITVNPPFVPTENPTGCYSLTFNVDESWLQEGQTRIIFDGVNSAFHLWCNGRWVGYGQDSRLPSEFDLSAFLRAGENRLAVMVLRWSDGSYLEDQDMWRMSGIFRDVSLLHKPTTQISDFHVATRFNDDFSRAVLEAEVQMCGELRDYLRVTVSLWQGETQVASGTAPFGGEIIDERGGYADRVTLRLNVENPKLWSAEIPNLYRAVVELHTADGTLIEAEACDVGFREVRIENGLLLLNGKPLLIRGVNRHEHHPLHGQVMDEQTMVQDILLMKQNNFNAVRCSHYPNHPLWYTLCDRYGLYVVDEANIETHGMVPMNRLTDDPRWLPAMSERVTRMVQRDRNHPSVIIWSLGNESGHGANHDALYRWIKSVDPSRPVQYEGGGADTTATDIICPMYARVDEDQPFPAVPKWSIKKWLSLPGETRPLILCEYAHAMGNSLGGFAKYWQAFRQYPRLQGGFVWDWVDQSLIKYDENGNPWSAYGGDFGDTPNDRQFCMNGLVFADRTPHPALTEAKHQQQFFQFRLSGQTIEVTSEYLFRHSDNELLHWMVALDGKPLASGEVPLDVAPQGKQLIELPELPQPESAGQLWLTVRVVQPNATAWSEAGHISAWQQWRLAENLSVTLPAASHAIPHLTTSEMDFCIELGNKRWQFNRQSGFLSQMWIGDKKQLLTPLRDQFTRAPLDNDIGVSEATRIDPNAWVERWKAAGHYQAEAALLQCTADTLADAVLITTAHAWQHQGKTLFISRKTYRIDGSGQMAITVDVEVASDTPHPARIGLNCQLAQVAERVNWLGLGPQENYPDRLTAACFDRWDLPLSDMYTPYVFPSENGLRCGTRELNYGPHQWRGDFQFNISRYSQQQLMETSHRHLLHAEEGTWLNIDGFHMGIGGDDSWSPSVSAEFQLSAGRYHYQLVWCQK

## Cc1ccc(C(=O)Nc2nc3ccc(S(C)(=O)=O)cc3s2)cc1C
[1]
  IC50: > 111 µM (not active)
[2]
  IC50: 4.48 µM (active)

## Cc1nc2ccc(NC(=O)Cc3ccc4c(c3)OCCO4)cc2s1
[3]
  EC50: > 120 µM (not active)

## Cc1cc(NC(=O)COC(=O)c2oc3c(ccc4ccccc43)c2C)no1
[1]
  IC50: > 111 µM (not active)
[2]
  IC50: 9.17 µM (active)

## CC(C)(C)c1ccc(C2CC2C(=O)N/N=C\c2ccc[nH]2)cc1 (stereo not given)
[4]
  EC50: 0.389 µM (active)
[5]
  AC50: 1.97 µM (active)
[6]
  IC50: 2.66 µM (active)
[7]
  EC50: 3.25 µM (active)
[8]
  AC50: 3.52 µM (active)
INS1
  AC50: 0.854 µM (active)
[9]
  AC50: 4.53 µM (active)
[10]
  AC50: 1.5 µM (active)
[11]
  AC50: 2.75 µM (active)
[12]
  IC50: 1.44 µM (active)

## O=C(N/N=C(\c1ccccc1)c1cccnc1)c1cccc(F)c1
Cells [13]
  EC50: 28.7 µM (active)
BJ [14]
  EC50: 12.4 µM (active)
[15]
  IC50: > 32 µM
Beta-galactosidase [16]
  EC50: > 31.5 µM (inactive)
Beta-galactosidase [17]
  EC50: > 40 µM (inactive)
BJ [18]
  EC50: 0.939 µM (active)
BJ [19]
  EC50: 5.95 µM (active)
BJ [20]
  EC50: 4.43 µM (active)
Streptococcus
  EC50: 11 µM (active)
[21]
  EC50: 5.5 µM (active)
INS1
  AC50: 0.519 µM (active)
Streptokinase A
  EC50: > 150 µM (not active)
[22]
  IC50: 10.8 µM (active)
[23]
  IC50: > 80 µM (inactive)
Cells [24]
  EC50: > 350 µM (not active)
Vero
  CC50: 1.7 µM (active)
Cells [25]
  IC50: 1.73 µM (active)
[26]
  CC50: 9.37 µM (active)
[27]
  AC50: 120 µM (active)
[28]
  CC50: 0.726 µM (active)
[29]
  EC50: 21.5 µM (active)
[12]
  IC50: 0.747 µM (active)
[30]
  EC50: 5.35 µM (inconclusive)
[31]
  IC50: 13.1 µM (active)
[32]
  CC50: 1.18 µM (active)
